According to patent US11807650B2, “NMDA receptor modulators and uses thereof” (Novartis AG, priority 2016, dated 2023):

Target: T1, human GRIN1 (transcript variant NR1-3) and GRIN2D expressed in Xenopus oocytes (Homo sapiens, UniProt O15399)
T1 construct: GenScript (GRIN2D synthesis) SC115601; host or cells: Xenopus oocytes injected with cRNA (1 GluN1 : 2 GluN2)
Assay: NR2D oocyte potentiation assay (two-electrode voltage clamp)
Assay type: cell-based
Conditions: 10 uM test compound; glutamate and glycine 10 μM each; holding potential −40 mV
In short: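 Xenopus oocytes were defolliculated with collagenase, then injected with 50 nL of cRNA encoding human GluN1 (NR1-3 variant) and GluN2D mixed 1:2 and kept 72 h at 16° C. Two-electrode voltage clamp at −40 mV recorded currents; after 10 μM glutamate plus 10 μM glycine reached plateau, test compound was added until a new plateau formed.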

T1 sequence (O15399 28-1336, other chains not shown): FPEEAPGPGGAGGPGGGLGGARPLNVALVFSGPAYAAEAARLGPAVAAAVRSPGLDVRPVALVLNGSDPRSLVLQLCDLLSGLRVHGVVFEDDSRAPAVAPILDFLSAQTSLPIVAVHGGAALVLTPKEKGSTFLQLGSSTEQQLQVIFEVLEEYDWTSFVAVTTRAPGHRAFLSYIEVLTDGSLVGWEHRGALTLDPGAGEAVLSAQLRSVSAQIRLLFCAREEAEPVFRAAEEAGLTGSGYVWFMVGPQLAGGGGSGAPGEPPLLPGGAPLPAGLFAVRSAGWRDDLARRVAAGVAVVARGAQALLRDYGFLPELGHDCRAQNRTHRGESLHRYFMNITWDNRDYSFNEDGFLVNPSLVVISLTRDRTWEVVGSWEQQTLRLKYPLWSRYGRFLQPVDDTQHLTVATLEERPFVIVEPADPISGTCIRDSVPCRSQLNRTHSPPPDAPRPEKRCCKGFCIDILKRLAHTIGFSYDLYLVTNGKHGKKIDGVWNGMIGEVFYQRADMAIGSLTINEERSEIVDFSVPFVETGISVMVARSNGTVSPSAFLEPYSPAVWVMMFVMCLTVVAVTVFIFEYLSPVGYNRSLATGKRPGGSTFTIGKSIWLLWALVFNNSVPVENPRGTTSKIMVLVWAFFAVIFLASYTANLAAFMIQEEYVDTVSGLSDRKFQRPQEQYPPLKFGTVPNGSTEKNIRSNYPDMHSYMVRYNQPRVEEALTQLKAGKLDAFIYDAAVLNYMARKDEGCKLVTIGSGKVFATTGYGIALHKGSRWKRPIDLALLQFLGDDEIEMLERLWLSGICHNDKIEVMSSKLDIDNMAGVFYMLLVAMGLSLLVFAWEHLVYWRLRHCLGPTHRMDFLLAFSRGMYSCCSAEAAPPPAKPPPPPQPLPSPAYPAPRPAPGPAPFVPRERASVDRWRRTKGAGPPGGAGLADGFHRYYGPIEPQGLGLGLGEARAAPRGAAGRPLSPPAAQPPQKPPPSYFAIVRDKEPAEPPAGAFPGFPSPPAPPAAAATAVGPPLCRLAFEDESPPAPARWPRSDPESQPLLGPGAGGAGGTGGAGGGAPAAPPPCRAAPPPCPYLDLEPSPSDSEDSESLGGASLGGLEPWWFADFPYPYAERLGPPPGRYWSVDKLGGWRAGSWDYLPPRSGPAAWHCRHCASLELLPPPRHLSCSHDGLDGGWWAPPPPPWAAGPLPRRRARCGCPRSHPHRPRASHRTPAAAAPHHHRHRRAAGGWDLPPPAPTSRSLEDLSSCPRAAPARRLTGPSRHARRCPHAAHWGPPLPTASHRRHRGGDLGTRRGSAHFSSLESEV

Row | Structure (SMILES) | activation at 10 µM [%] | NR2D Oocyte % Potentiation @ 10 uM
1 | CC(C)C1CSc2nc(-c3ccc(C(C)(C)C)nc3)c(C#N)c(=O)n2C1 (stereo not drawn) [Example 80, 8-(6-(tert-butyl)pyridin-3-yl)-3-isopropyl-6-oxo-3,4-dihydro-2H,6H-pyrimido[2,1-b][1,3]thiazine-7-carbonitrile] | 100 to 500 | 
2 | CC1CSc2nc(-c3cnc(C(C)(C)C)c(F)c3)c(C#N)c(=O)n2C1 (stereo not drawn) [Example 76, 8-(6-(tert-butyl)-5-fluoropyridin-3-yl)-3-methyl-6-oxo-3,4-dihydro-2H,6H-pyrimido[2,1-b][1,3]thiazine-7-carbonitrile] | > 1000 | 
3 | CC(C)(C)c1ccc(-c2nc3n(c(=O)c2C#N)CC(F)CS3)cn1 (stereo not drawn) [Example 16, 8-(6-(tert-butyl)pyridin-3-yl)-3-fluoro-6-oxo-3,4-dihydro-2H,6H-pyrimido[2,1-b][1,3]thiazine-7-carbonitrile] | 10 to 100 | 
4 | CN1CSc2nc(-c3ccc(C(C)(C)C)cc3)c(C#N)c(=O)n2C1 [Example 6, 8-(4-(tert-butyl)phenyl)-3-methyl-6-oxo-3,4-dihydro-2H,6H-pyrimido[2,1-b][1,3,5]thiadiazine-7-carbonitrile] | 10 to 100 | 
5 | CC(C)(C)c1ncc(-c2nc3n(c(=O)c2C#N)C[C@H](CO)CS3)cn1 [Example 138, (R)-8-(2-(tert-butyl)pyrimidin-5-yl)-3-(hydroxymethyl)-6-oxo-3,4-dihydro-2H,6H-pyrimido[2,1-b][1,3]thiazine-7-carbonitrile] | > 1000 | 
6 | C[C@@H]1CSc2cc(-c3cnc(C(C)(C)C)nc3)c(C#N)c(=O)n2C1 [Example 105, (S)-8-(2-(tert-butyl)pyrimidin-5-yl)-3-methyl-6-oxo-3,4-dihydro-2H,6H-pyrido[2,1-b][1,3]thiazine-7-carbonitrile] | > 1000 | 
7 | CC(C)(C)c1ccc(-c2nc3sccn3c(=O)c2C#N)cn1 [Example 3, 7-(6-(tert-butyl)pyridin-3-yl)-5-oxo-5H-thiazolo[3,2-a]pyrimidine-6-carbonitrile] | 100 to 500 | 
8 | CC(C)(C)c1ncc(-c2nc3n(c(=O)c2C#N)C[C@H](CF)CS3)cn1 [Example 142, (R)-8-(2-(tert-butyl)pyrimidin-5-yl)-3-(fluoromethyl)-6-oxo-3,4-dihydro-2H,6H-pyrimido[2,1-b][1,3]thiazine-7-carbonitrile] | 500 to 1000 | 
9 | CC(C)(C)c1ccc(-c2nc3n(c(=O)c2Br)CCCS3)cc1 [Example 28, 7-bromo-8-(4-(tert-butyl)phenyl)-3,4-dihydro-2H,6H-pyrimido[2,1-b][1,3]thiazin-6-one] | 100 to 500 | 
10 | CC(C)(C)c1ccc(-c2nc3n(c(=O)c2Br)CCCC3)cn1 [Example 15, 3-bromo-2-(6-tert-butylpyridin-3-yl)-4H,6H, 7H,8H,9H-pyrido[1,2-a] pyrimidin-4-one] | 10 to 100 | 
11 | CC(C)(C)c1ncc(-c2nc3n(c(=O)c2C#N)C[C@H](CO)CS3)cc1F [Example 158, (R)-8-(6-(tert-butyl)-5-fluoropyridin-3-yl)-3-(hydroxymethyl)-6-oxo-3,4-dihydro-2H,6H-pyrimido[2,1-b][1,3]thiazine-7-carbonitrile] | > 1000 | 
12 | C[C@@H]1CSc2nc(-c3cnc(C(C)(C)C)c(O)c3)c(C#N)c(=O)n2C1 [Example 140, (S)-8-(6-(tert-butyl)-5-hydroxypyridin-3-yl)-3-methyl-6-oxo-3,4-dihydro-2H,6H-pyrimido[2,1-b][1,3]thiazine-7-carbonitrile] | 500 to 1000 | 
13 | CC(C)(C)OC(=O)NCC1CSc2nc(-c3ccc(C(C)(C)C)nc3)c(C#N)c(=O)n2C1 (stereo not drawn) [Example 144, tert-butyl ((8-(6-(tert-butyl)pyridin-3-yl)-7-cyano-6-oxo-3,4-dihydro-2H,6H-pyrimido[2,1-b][1,3]thiazin-3-yl)methyl)carbamate] | > 1000 | 
14 | CC(CF)(CF)c1ccc(-c2nc3n(c(=O)c2C#N)CCCS3)cn1 [Example 156, 8-(6-(1,3-difluoro-2-methylpropan-2-yl)pyridin-3-yl)-6-oxo-3,4-dihydro-2H,6H-pyrimido[2,1-b][1,3]thiazine-7-carbonitrile] | 100 to 500 | 
15 | COCOCC1CSc2nc(-c3cnc(C(C)(C)C)c(F)c3)c(C#N)c(=O)n2C1 (stereo not drawn) [Example 170, 8-(6-(tert-butyl)-5-fluoropyridin-3-yl)-3-((methoxymethoxy)methyl)-6-oxo-3,4-dihydro-2H,6H-pyrimido[2,1-b][1,3]thiazine-7-carbonitrile] | > 1000 | 
16 | CC(C)(C)OCC1CSc2nc(-c3cnc(C(C)(C)C)c(F)c3)c(C#N)c(=O)n2C1 (stereo not drawn) [Example 173, 3-(tert-butoxymethyl)-8-(6-(tert-butyl)-5-fluoropyridin-3-yl)-6-oxo-3,4-dihydro-2H,6H-pyrimido[2,1-b][1,3]thiazine-7-carbonitrile] | 10 to 100 | 
17 | CC1(c2ccc(-c3nc4n(c(=O)c3C#N)CCCS4)cn2)CC1 [Example 109, 8-[6-(1-methyl-cyclopropyl)pyridin-3-yl]-6-oxo-2H,3H, 4H,6H-pyrimido[2,1-b] [1,3]thiazine-7-carbonitrile] | 500 to 1000 | 

Row | Structure (SMILES) | activation at 10 µM [%] | NR2D Oocyte % Potentiation @ 10 uM
18 | CC(C)(O)c1ccc(-c2nc3n(c(=O)c2C#N)CCCS3)cn1 [Example 83, 8-(6-(2-hydroxypropan-2-yl)pyridin-3-yl)-6-oxo-3,4-dihydro-2H,6H-pyrimido[2,1-b][1,3]thiazine-7-carbonitrile] | 10 to 100 | 
19 | COC(=O)C1CSc2nc(-c3cnc(C(C)(C)C)nc3)c(C#N)c(=O)n2C1 (stereo not drawn) [Example 89, methyl 8-(2-(tert-butyl)pyrimidin-5-yl)-7-cyano-6-oxo-3,4-dihydro-2H,6H-pyrimido[2,1-b][1,3]thiazine-3-carboxylate] | 100 to 500 | 
20 | COC[C@H]1CSc2nc(-c3cnc(C(C)(C)C)c(F)c3)c(C#N)c(=O)n2C1 [Example 166, (S)-8-(6-(tert-butyl)-5-fluoropyridin-3-yl)-3-(methoxymethyl)-6-oxo-3,4-dihydro-2H,6H-pyrimido[2,1-b][1,3]thiazine-7-carbonitrile] | > 1000 | 
21 | CC(C)(C)c1ccc(-c2nc3n(c(=O)c2C#N)CCCO3)cn1 [Example 77, 8-(6-(tert-butyl)pyridin-3-yl)-6-oxo-3,4-dihydro-2H,6H-pyrimido[2,1-b][1,3]oxazine-7-carbonitrile] | 10 to 100 | 
22 | CSc1c(-c2ccc(C(C)(C)C)nc2)nc2n(c1=O)CCCC2 [Example 27, 2-(6-tert-butylpyridin-3-yl)-3-(methylsulfanyl)-4H,6H,7H, 8H,9H-pyrido[1,2-a] pyrimidin-4-one] | < 10 | 
23 | C[C@H]1CSc2nc(-c3ccc(C4(C)CC4)nc3)c(C#N)c(=O)n2C1 [Example 115, (R)-3-methyl-8-(6-(1-methylcyclopropyl)pyridin-3-yl)-6-oxo-3,4-dihydro-2H,6H-pyrimido[2,1-b][1,3]thiazine-7-carbonitrile] | 100 to 500 | 
24 | CC1(C)CN(c2ccc(-c3nc4n(c(=O)c3C#N)CCCS4)cn2)C1 [Example 54, 8-(6-(3,3-dimethylazetidin-1-yl)pyridin-3-yl)-6-oxo-3,4-dihydro-2H,6H-pyrimido[2,1-b][1,3]thiazine-7-carbonitrile] |  | Inhibitor
25 | C[C@@H]1CSc2cc(-c3cnc(C(C)(C)C)c(F)c3)c(C#N)c(=O)n2C1 [Example 107, (S)-8-(6-(tert-butyl)-5-fluoropyridin-3-yl)-3-methyl-6-oxo-3,4-dihydro-2H,6H-pyrido[2,1-b][1,3]thiazine-7-carbonitrile] | 500 to 1000 | 
26 | N#Cc1c(-c2ccc(N3CC(F)(F)C3)nc2)nc2n(c1=O)CCCS2 [Example 55, 8-(6-(3,3-difluoroazetidin-1-yl)pyridin-3-yl)-6-oxo-3,4-dihydro-2H,6H-pyrimido[2,1-b][1,3]thiazine-7-carbonitrile] |  | Inhibitor
27 | COCOC[C@@H]1CSc2nc(-c3cnc(C(C)(C)C)c(F)c3)c(C#N)c(=O)n2C1 [Example 172, (R)-8-(6-(tert-butyl)-5-fluoropyridin-3-yl)-3-((methoxymethoxy)methyl)-6-oxo-3,4-dihydro-2H,6H-pyrimido[2,1-b][1,3]thiazine-7-carbonitrile] | > 1000 | 
28 | CC1CSc2nc(-c3ccc(N4CC(F)(F)C4)nc3)c(C#N)c(=O)n2C1 (stereo not drawn) [Example 56, 8-(6-(3,3-difluoroazetidin-1-yl)pyridin-3-yl)-3-methyl-6-oxo-3,4-dihydro-2H,6H-pyrimido[2,1-b][1,3]thiazine-7-carbonitrile] |  | Inhibitor
29 | CC(=O)NC[C@@H]1CSc2nc(-c3cnc(C(C)(C)C)c(F)c3)c(C#N)c(=O)n2C1 [Example 169, (S)-N-((8-(6-(tert-butyl)-5-fluoropyridin-3-yl)-7-cyano-6-oxo-3,4-dihydro-2H,6H-pyrimido[2,1-b][1,3]thiazin-3-yl)methyl)acetamide] | > 1000 | 
30 | C=C(C)c1ccc(-c2nc3n(c(=O)c2C#N)CCCS3)cn1 [Example 95, 6-oxo-8-(6-(prop-1-en-2-yl)pyridin-3-yl)-3,4-dihydro-2H,6H-pyrimido[2,1-b][1,3]thiazine-7-carbonitrile] | 100 to 500 | 
31 | COc1cc(-c2nc3n(c(=O)c2C#N)CC(C)CS3)cnc1C(C)(C)C (stereo not drawn) [Example 59, 8-(6-(tert-butyl)-5-methoxypyridin-3-yl)-3-methyl-6-oxo-3,4-dihydro-2H,6H-pyrimido[2,1-b][1,3]thiazine-7-carbonitrile] | > 1000 | 
32 | CC(C)(C)c1ncc(-c2cc3n(c(=O)c2C#N)CCCS3)cc1F [Example 102, 8-(6-(tert-butyl)-5-fluoropyridin-3-yl)-6-oxo-3,4-dihydro-2H,6H-pyrido[2,1-b][1,3]thiazine-7-carbonitrile] | > 1000 | 
33 | CC1CSc2cc(-c3cnc(C4(C)CC4)c(F)c3)c(C#N)c(=O)n2C1 (stereo not drawn) [Example 135, 8-(5-fluoro-6-(1-methylcyclopropyl)pyridin-3-yl)-3-methyl-6-oxo-3,4-dihydro-2H,6H-pyrido[2,1-b][1,3]thiazine-7-carbonitrile] | > 1000 | 
